Six molecules from publication PMC7127349 (Bioorganic & Medicinal Chemistry Letters, 2018) can be followed below.

This assay has as its system human coronavirus (229E). The class given is cell-based.

Take `CCOC(=O)C1(Cc2ccccc2)CN(c2ccccc2)Cc2nnn(CCc3cc4ccccc4[nH]3)c21` (stereo not drawn) [Compound 14n]: the “activity against human coronavirus (229E) lower than the activity observed with UDA” value is on record as “approximately 50 fold”.
`COc1ccc(CCn2nnc3c2CCN(c2ccc(C(F)(F)F)cc2)C3)cc1` [Compound 18f]: the “activity against human coronavirus (229E) lower than the activity observed with UDA” value is given as “approximately 50 fold”.
`CCOC(=O)C1(Cc2ccc(F)cc2)CN(c2ccccc2)Cc2nnn(Cc3ccc(Cl)c(Cl)c3)c21` (stereo not drawn) [Compound 14q]: the “activity against human coronavirus (229E) lower than the activity observed with UDA” value is reported as “approximately 50 fold”.
Same read-out and setting: the result for `Fc1cccc(Cn2nnc3c2CCN(c2ccc(C(F)(F)F)cc2)C3)c1` [Compound 18i] reads “approximately 50 fold”.
Take `CCOC(=O)C1(Cc2ccccc2)CN(c2ccccc2)Cc2nnn(Cc3ccc(F)cc3)c21` (stereo not drawn) [Compound 14d]: the “activity against human coronavirus (229E) lower than the activity observed with UDA” value is recorded as “approximately 50 fold”.

B1: Urtica dioica agglutinin (protein, UniProt P11218 24-372, looked up)
Lectin/endochitinase 1: QRCGSQGGGGTCPALWCCSIWGWCGDSEPYCGRTCENKCWSGERSDHRCGAAVGNPPCGQDRCCSVHGWCGGGNDYCSGSKCQYRCSSSVRGPRVALSGNSTANSIGNVVVTEPLFDQMFSHRKDCPSQGFYSYHSFLVAAESFPAFGTIGDVATRKREVAAFLAHISQATSGERSDVENPHAWGLCHINTTTVTENDFCTSSDWPCAAGKKYSPRGPIQLTHNFNYGLAGQAIGEDLIQNPDLVEKDPIISFKTALWFWMSQHDNKPSCHDIVLNANSAANRIPNKGVIGNIISRAFGHDDFAVRSSSIGFYKRYCDMLGVSYGHDLKYWFDNTPSSEFQRIQMRVAA
Broadly, the EC50 is the concentration at which the effect is half-maximal. On to B1, for which the EC50 (read-out: EC50 Human Coronavirus (229E)) came out at 0.2 µM.
